Consider seven molecules from paper PMC4604621, “Cytotoxicity, nitric oxide and acetylcholinesterase inhibitory activity of three limonoids isolated from Trichilia welwitschii (Meliaceae)” (Biological Research, 2015).

Usually inhibition stands for how much of the control response was suppressed. Broadly, the IC50 is the concentration at which inhibition is half-maximal.

Data set [1] deals with murine macrophage RAW 264.7. Briefly: MTT cytotoxicity assay on RAW 264.7 cells. The class given is cell-based. The following applies: Mus musculus. The protocol: (§1) Cells lines including human monocytic THP-1, murine macrophage RAW 264.7 and the Vero monkey kidney cell lines were obtained from the American Type Culture Collection (Rockville, MD, USA). They were maintained in DMEM supplemented with 10 % fetal calf serum (FCS) and 1 % penicillin/streptomycin/fongizone (PSF) under standard cell culture conditions at 37 °C and 5 % CO2 in a humidified environment.
(§2) The cytotoxicity of compounds was determined by the 3-[4,5-dimethylthiazol-2-yl]-2,5-diphenyltetrazolium (MTT) assay as previously described. The selectivity index (SI) values were calculated by dividing cytotoxicity LC50 values of normal Vero cells by the LC50 of cancer cells in the same units.

The nature of data set [2]: MTT cytotoxicity assay on Vero cells. The class given is cell-based. The following applies: monkey. On the procedure:
as §1, §2

For a further data set, the system named is human monocytic THP-1. Nature of the data set: MTT cytotoxicity assay on THP-1 cells. The class given is cell-based. The protocol: as §1, §2
(In general: Tetrazolium dyes change colour on reduction, which living cells bring about.)

Data set [3] addresses T1, acetylcholinesterase (AChE) enzyme from electric eels (Electrophorus electricus, UniProt O42275).
T1 construct: purchased Sigma (Germany) type VI-S lyophilized powder (catalogue number not given)
Nature of the data set: biochemical. As to conditions: for inhibition at 6.25 µg/mL / inhibition at 12.5 µg/mL / inhibition at 25 µg/mL / inhibition at 50 µg/mL: read-out: % AChE inhibition; for IC50: read-out: AChE inhibition IC50 (converted). The protocol:
Inhibition of acetylcholinesterase activity was determined using Ellman’s colorimetric method with slight modifications. […] Then, AChE (0.2 U/mL) was added to the wells and the absorbance was determined spectrophotometrically (BioTek Synergy microplate reader) at 405 nm. Distilled water was used as negative control. […] The IC50 values of samples leading to 50 % inhibition were calculated by plotting the percentage of inhibition against the concentrations.

Data set [4] relates to nitric oxide production in LPS-stimulated RAW 264.7 macrophages. Briefly: Nitric oxide production in LPS-activated RAW 264.7 macrophages (Griess reagent). The class given is cell-based, murine. The following applies: 0.5 µg/mL compound, 1 µg/mL LPS, 24 h. The protocol: Fig. 1 Inhibitory activity of three limonoids isolated from Trichilia welwitschii on nitrix oxide production. The RAW 264.7 macrophages cells were seeded in 96 well-microtitre plates and were activated by incubation in medium containing 1 µg/mL LPS alone (control) or lipopolysaccharide with different concentrations of the samples dissolved in DMSO. Nitric oxide released from macrophages was determined by measuring the nitrite concentration in culture supernatant using the Griess reagent. The concentrations of nitrite were derived from regression analysis using serial dilutions of sodium nitrite as a standard. Percentage inhibition was calculated based on the ability of compounds to inhibit nitric oxide formation by cells compared with the control (cells in media without compounds), which was considered as 0 % inhibition.
The RAW 264.7 macrophages cells were seeded in 96 well-microtitre plates and were activated by incubation in medium containing 1 µg/mL LPS alone (control) or lipopolysaccharide with different concentrations of the samples dissolved in DMSO. […]
Nitric oxide released from macrophages was determined by measuring the nitrite concentration in culture supernatant using the Griess reagent. […] The absorbance of the resultant solutions was determined on a BioTek Synergy microplate reader after 10 min at 550 nm. […]

For data set [5], the system named is nitric oxide production from LPS-activated macrophages. As to conditions: read-out: IC50 against nitric oxide production; cited from earlier work.
The next data set concerns RAW 264.7 macrophages. Briefly: Cell viability of LPS-activated RAW 264.7 macrophages (MTT). The following applies: Fig. 1b, at the concentration leading to effective inhibition of NO production. The class given is cell-based, murine. The protocol: To determine whether the observed nitric oxide inhibition was not due to cytotoxic effects, MTT assay was also performed on the macrophage cells as previously described.

[6] abbreviates: RAW264.7, RAW 264.7 cells, MTT, read-out: Cytotoxicity LC50 RAW 264.7.
Setting [7] is: Vero kidney cells, Vero cells, MTT, read-out: Cytotoxicity LC50 Vero.
Where [8] appears, read: human, mouse, THP-1 and RAW 264.7 cells (range over the cell lines), range over the cell lines tested (Vero, THP-1, RAW 264.7), read-out: LC50 values (range over the cell lines).
The mark [9] stands for this setting: RAW264.7, read-out: Cytotoxicity LC50 RAW 264.7.
The mark [10] stands for this setting: THP-1, read-out: Cytotoxicity LC50 THP-1.

Converted amounts (≈) assume the structure as drawn. Read-outs that look alike come from different tables or passages of the source.

T1 sequence (O42275 24-633): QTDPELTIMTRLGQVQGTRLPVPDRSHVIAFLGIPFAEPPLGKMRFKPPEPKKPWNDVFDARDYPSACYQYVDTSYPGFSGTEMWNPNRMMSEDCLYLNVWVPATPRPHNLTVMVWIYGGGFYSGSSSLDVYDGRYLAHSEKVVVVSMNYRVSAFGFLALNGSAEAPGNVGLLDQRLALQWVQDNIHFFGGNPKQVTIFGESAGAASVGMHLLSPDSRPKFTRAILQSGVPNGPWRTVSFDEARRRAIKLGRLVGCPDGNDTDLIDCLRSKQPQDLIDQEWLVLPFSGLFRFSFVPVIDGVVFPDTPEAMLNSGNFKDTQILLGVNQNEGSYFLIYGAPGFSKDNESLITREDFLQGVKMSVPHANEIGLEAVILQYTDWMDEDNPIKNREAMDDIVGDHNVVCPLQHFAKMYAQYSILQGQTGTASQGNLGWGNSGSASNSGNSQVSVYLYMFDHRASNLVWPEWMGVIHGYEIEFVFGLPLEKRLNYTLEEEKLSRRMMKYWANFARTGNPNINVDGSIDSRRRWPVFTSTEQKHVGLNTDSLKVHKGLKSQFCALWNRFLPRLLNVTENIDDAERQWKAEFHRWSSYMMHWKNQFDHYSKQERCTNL

Turning to `COc1cccc2c1C(=O)c1c(O)c3c(c(O)c1C2=O)C[C@@](O)(C(=O)CO)C[C@@H]3O[C@H]1C[C@H](N)[C@H](O)[C@H](C)O1` [Doxorubicin], the results for the CC50 in data set [1] (setting [6]), in data set [2] (setting [7]) and in data set [2] (setting [8]) were 1.06 ± 0.65 µg/mL (≈ 1.95 µM), 9.35 ± 0.66 µg/mL (≈ 17.2 µM) and 1.06 to 9.35 µg/mL (≈ 1.95 to 17.2 µM), respectively.

For `C=C1[C@@]2(O)C(=O)C[C@@H](c3ccoc3)[C@]2(C)[C@@H](OC(=O)C(O)C(C)CC)[C@@H]2O[C@H]3CC(=O)O[C@]4(C)COC(=O)CC4[C@@]3(C)[C@]12C` (stereo partly drawn) [Compound 2, rohituka 3], the CC50 in data set [1] (setting [9]) amounted to 65.7 ± 3.64 µg/mL (≈ 107 µM). For the same molecule, the CC50 in the data set on human monocytic THP-1 (setting [10]) stood at 81.2 ± 4.04 µg/mL (≈ 132 µM). Moreover, in data set [3], the inhibition at 6.25 µg/mL worked out at 14 ± 6%, the inhibition at 12.5 µg/mL came to 47.3 ± 2.08%, the inhibition at 25 µg/mL stood at 67 ± 4.36% and the inhibition at 50 µg/mL was determined as 82.7 ± 7.04%. The IC50 in data set [3] is 55.6 µM. Besides, the “Amount of nitric oxide released” value in data set [4] is on record as 2.97 µM. In data set [2] (setting [7]), the CC50 is 85.2 ± 6.31 µg/mL (≈ 139 µM).

For the molecule `C=C1[C@@]23O[C@@H]2C[C@@H](c2ccoc2)[C@]3(C)[C@@H](OC(=O)C(O)C(C)CC)[C@@H]2O[C@H]3CC(=O)O[C@]4(C)COC(=O)CC4[C@@]3(C)[C@]12C` (stereo partly drawn) [Compound 3, dregeanin DM4], in data set [1] (setting [9]), the CC50 amounted to 61.9 ± 4.14 µg/mL (≈ 103 µM). The CC50 with human monocytic THP-1 (setting [10]) worked out at 84.5 ± 5.81 µg/mL (≈ 141 µM). Besides, in data set [3], the inhibition at 6.25 µg/mL was 30.3 ± 3.51%, the inhibition at 12.5 µg/mL came out at 31.7 ± 5.2%, the inhibition at 25 µg/mL came to 70.7 ± 3.5% and the inhibition at 50 µg/mL amounted to 87 ± 8.74%. In addition, the IC50 in data set [3] was 76.3 µM. In data set [4], the “Amount of nitric oxide released” value is 2.93 µM. For the same molecule, in data set [2] (setting [7]), the CC50 turned out to be 75.8 ± 1.85 µg/mL (≈ 127 µM).

On to `COc1ccc(C[C@H](N)C(=O)N[C@H]2[C@@H](O)[C@H](n3cnc4c(N(C)C)ncnc43)O[C@@H]2CO)cc1` [Puromycin, reference compound], for which the CC50 in data set [1] (setting [6]) is 1.15 ± 0.17 µg/mL (≈ 2.44 µM); with human monocytic THP-1 (THP-1 cells, MTT, read-out: Cytotoxicity LC50 THP-1), 0.4 ± 0.02 µg/mL (≈ 0.848 µM); in data set [2] (setting [7]), 5.32 ± 0.9 µg/mL (≈ 11.3 µM); in data set [2] (setting [8]) it was 1.15 to 5.32 µg/mL (≈ 2.44 to 11.3 µM).

`CC[C@H](C)C(=O)O[C@H]1C(C)(C)[C@H](CC(=O)OC)[C@@]2(C)[C@H]3CC[C@]4(C)C(=CC(=O)O[C@H]4c4ccoc4)[C@]34O[C@@]2(O)[C@@]1(O)[C@H]4OC(=O)[C@@H](C)CC` [xylorumphiin I]: the IC50 in data set [5] was 31.3 µM.

Consider `CC[C@H](C)C(=O)O[C@H]1[C@@]23O[C@]4(O)[C@@](C)([C@@H](CC(=O)OC)C(C)(C)[C@H](OC(=O)C(C)C)[C@]14O)[C@H]2CC[C@]1(C)[C@H]3CC(=O)O[C@H]1c1ccoc1` [2-hydroxyxylorumphiin F], for which the IC50 in data set [5] was 24.5 µM.

Take `C=C1[C@@]23O[C@@H]2C[C@@H](c2ccoc2)[C@]3(C)[C@@H](OC(=O)C(O)C(C)CC)[C@H](C(=O)O)[C@]1(C)[C@](C)(C1CC(=O)O[C@]1(C)CO)[C@H](CC(=O)OC)OC(C)=O` (stereo partly drawn) [Compound 1, trichilia lactone D5]: the CC50 in data set [1] (setting [9]) came out at 23.6 ± 5.77 µg/mL (≈ 32.8 µM). Further, in the data set with human monocytic THP-1 (setting [10]), the CC50 is 81.2 ± 6.38 µg/mL (≈ 113 µM). For the same molecule, in data set [3], the inhibition at 6.25 µg/mL was 28 ± 6.56%, the inhibition at 12.5 µg/mL worked out at 18 ± 8.89%, the inhibition at 25 µg/mL was determined as 71.7 ± 6.03% and the inhibition at 50 µg/mL came to 94.3 ± 8.15%. For the same molecule, the IC50 in data set [3] is 26.6 µM. Further, the CC50 in data set [2] (setting [7]) amounted to 89.2 ± 5 µg/mL (≈ 124 µM). Moreover, in the data set on RAW 264.7 macrophages, the “Cytotoxicity against RAW 264.7 macrophages by MTT assay” value was “slight toxic effect”.
